These molecules were tested on human cervical tumor cell line HeLa (ATCC CCL-2) (assay: SAC-Formation - Nocodazole-Induced Assay). Details: Homo sapiens, HeLa, 24 h, HeLa cells, nocodazole 0.1 μg/ml together with test compound, decrease of mitotic cells (phospho-histone H3 Ser10).
Type: cell-based
How it was run: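 HeLa cells, plated overnight, were treated 24 h at 37 °C with nocodazole (0.1 μg/ml final) plus test compound (0.005–20 μM, 0.5% DMSO) added at the same time. After fixation, anti-phospho-histone H3 Ser10 and Hoechst staining gave the mitotic cell fraction by imaging. Values came from four-parameter Hill fits.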
An IC50 of 140 nM was found for `Cc1nsc(Nc2cncc(C(F)(F)F)n2)c1C(=O)Nc1ccc(OCCNC(=O)OC(C)(C)C)c(F)c1` [Example 216, tert-butyl [2-(2-fluoro-4-{[(3-methyl-5-{[6-(trifluoromethyl)pyrazin-2-yl]amino}-1,2-thiazol-4-yl)carbonyl]amino}phenoxy)ethyl]carbamate] in this work.
An IC50 of 58 nM was found for `Cc1nsc(Nc2cnc3ccccc3n2)c1C(=O)Nc1ccc(Oc2cccnc2)nc1` [Example 231, 3-methyl-N-[6-(pyridin-3-yloxy)pyridin-3-yl]-5-(quinoxalin-2-ylamino)-1,2-thiazole-4-carboxamide] in this work.
An IC50 of 89 nM was found for `Cc1nsc(Nc2cc(C#N)ccn2)c1C(=O)Nc1ccc(Oc2cccc(C(F)(F)F)c2)nc1` [Example 230, 5-[(4-cyanopyridin-2-yl)amino]-3-methyl-N-{6-[3-(trifluoromethyl)phenoxy]pyridin-3-yl}-1,2-thiazole-4-carboxamide] in this work.
An IC50 of 200 nM was found for `CNC(=O)c1ccc(NC(=O)c2c(C)nsc2Nc2cnc3ccccc3n2)cc1F` [Example 207, N-[3-fluoro-4-(methylcarbamoyl)phenyl]-3-methyl-5-(quinoxalin-2-ylamino)-1,2-thiazole-4-carboxamide] in this work.
An IC50 of 4700 nM was found for `Cc1nsc(Nc2cnc3ccccc3n2)c1C(=O)Nc1ccc(Oc2ccc(SC(F)(F)F)cc2)nc1` [Example 233, 3-methyl-5-(quinoxalin-2-ylamino)-N-(6-{4-[(trifluoromethyl)sulfanyl]phenoxy}pyridin-3-yl)-1,2-thiazole-4-carboxamide] in this work.
An IC50 of 1300 nM was found for `Cc1nsc(Nc2ccc(C#N)cn2)c1C(=O)Nc1ccc(F)c(C(N)=O)c1` [Example 203, N-(3-carbamoyl-4-fluorophenyl)-5-[(5-cyanopyridin-2-yl)amino]-3-methyl-1,2-thiazole-4-carboxamide] in this work.
An IC50 of 3000 nM was found for `Cc1nsc(Nc2cnc3ccccc3n2)c1C(=O)Nc1ccc(NCCC(=O)OC(C)(C)C)nc1` [Example 236, tert-butyl N-[5-({[3-methyl-5-(quinoxalin-2-ylamino)-1,2-thiazol-4-yl]carbonyl}amino)pyridin-2-yl]-beta-alaninate] in this work.
An IC50 of 4600 nM was found for `Cc1nsc(Nc2cncc(C(F)(F)F)n2)c1C(=O)Nc1ccc(OC2CCNCC2)nc1` [Example 13, 3-Methyl-N-[6-(piperidin-4-yloxy)pyridin-3-yl]-5-{[6-(trifluoromethyl)pyrazin-2-yl]-amino}-1,2-thiazole-4-carboxamide] in this work.
An IC50 of 470 nM was found for `Cc1nsc(Nc2cncc(C(F)(F)F)n2)c1C(=O)Nc1ccc(C(=O)OC(C)(C)C)cc1` [Example 193, tert-butyl tert-butyl 4-{[(3-methyl-5-{[6-(trifluoromethyl)pyrazin-2-yl]amino}-1,2-thiazol-4-yl)carbonyl]amino}benzoate] in this work.
An IC50 of 1300 nM was found for `Cc1nsc(Nc2ccc(C#N)cn2)c1C(=O)Nc1cccc(N)c1` [Example 180, N-(3-aminophenyl)-5-[(5-cyanopyridin-2-yl)amino]-3-methyl-1,2-thiazole-4-carboxamide] in this work.
An IC50 of 2200 nM was found for `Cc1nsc(Nc2cc(C#N)ccn2)c1C(=O)Nc1cccc(C(=O)NC2CC2)c1` [Example 175, 5-[(4-cyanopyridin-2-yl)amino]-N-[3-(cyclopropylcarbamoyl)phenyl]-3-methyl-1,2-thiazole-4-carboxamide] in this work.
An IC50 of 530 nM was found for `COc1ccc(NC(=O)c2c(C)nsc2Nc2cnc3ccccc3n2)c(CC#N)n1` [Example 235, N-[2-(cyanomethyl)-6-methoxypyridin-3-yl]-3-methyl-5-(quinoxalin-2-ylamino)-1,2-thiazole-4-carboxamide] in this work.
An IC50 of 210 nM was found for `Cc1nsc(Nc2cnc3ccccc3n2)c1C(=O)Nc1cccc(NC(=O)OC(C)(C)C)c1` [Example 178, tert-butyl [3-({[3-methyl-5-(quinoxalin-2-ylamino)-1,2-thiazol-4-yl]carbonyl}amino)-phenyl]carbamate] in this work.
An IC50 of 520 nM was found for `Cc1nsc(Nc2cnc3ccccc3n2)c1C(=O)Nc1ccc(C(N)=O)c(F)c1` [Example 201, N-(4-carbamoyl-3-fluorophenyl)-3-methyl-5-(quinoxalin-2-ylamino)-1,2-thiazole-4-carboxamide] in this work.
An IC50 of 230 nM was found for `Cc1nsc(Nc2cnc3ccccc3n2)c1C(=O)Nc1ccccc1S(C)(=O)=O` [Example 188, 3-methyl-N-[2-(methylsulfonyl)phenyl]-5-(quinoxalin-2-ylamino)-1,2-thiazole-4-carboxamide] in this work.
An IC50 of 130 nM was found for `Cc1nsc(Nc2ccc(C#N)cn2)c1C(=O)Nc1cccc(C(=O)OC(C)(C)C)c1` [Example 240, tert-butyl 3-[({5-[(5-cyanopyridin-2-yl)amino]-3-methyl-1,2-thiazol-4-yl}carbonyl)amino]benzoate] in this work.
An IC50 of 320 nM was found for `Cc1nsc(Nc2cncc(C(F)(F)F)n2)c1C(=O)Nc1ccc(C(=O)NCCN2CCCC(F)(F)C2)cc1` [Example 214, N-(4-{[2-(3,3-difluoropiperidin-1-yl)ethyl]carbamoyl}phenyl)-3-methyl-5-{[6-(trifluoromethyl)pyrazin-2-yl]amino}-1,2-thiazole-4-carboxamide] in this work.
An IC50 of 1100 nM was found for `Cc1nsc(Nc2cnc(C(F)(F)F)cn2)c1C(=O)Nc1ccc(OC2CCN(C)CC2)nc1` [Example 220, 3-methyl-N-{6-[(1-methylpiperidin-4-yl)oxy]pyridin-3-yl}-5-{[5-(trifluoromethyl)pyrazin-2-yl]amino}-1,2-thiazole-4-carboxamide] in this work.
An IC50 of 490 nM was found for `Cc1nsc(Nc2cncc(C(F)(F)F)n2)c1C(=O)Nc1ccc(F)c(C(N)=O)c1` [Example 204, N-(3-carbamoyl-4-fluorophenyl)-3-methyl-5-{[6-(trifluoromethyl)pyrazin-2-yl]amino}-1,2-thiazole-4-carboxamide] in this work.
An IC50 of 3500 nM was found for `Cc1nsc(Nc2cnc3ccccc3n2)c1C(=O)Nc1ccc(NCC2CCN(C(=O)OC(C)(C)C)CC2)nc1` [Example 238, tert-butyl 4-({[5-({[3-methyl-5-(quinoxalin-2-ylamino)-1,2-thiazol-4-yl]carbonyl}amino)pyridin-2-yl]amino}methyl)piperidine-1-carboxylate] in this work.
An IC50 of 910 nM was found for `Cc1nsc(Nc2cncc(C(F)(F)F)n2)c1C(=O)Nc1ccc(OC2CCN(C)CC2)nc1` [Example 219, 3-methyl-N-{6-[(1-methylpiperidin-4-yl)oxy]pyridin-3-yl}-5-{[6-(trifluoromethyl)pyrazin-2-yl]amino}-1,2-thiazole-4-carboxamide] in this work.
An IC50 of 37 nM was found for `Cc1nsc(Nc2cnc(C(F)(F)F)cn2)c1C(=O)Nc1ccc(OCCNC(=O)OC(C)(C)C)nc1` [Example 192, tert-butyl {2-[(5-{[(3-methyl-5-{[5-(trifluoromethyl)pyrazin-2-yl]amino}-1,2-thiazol-4-yl)carbonyl]amino}pyridin-2-yl)oxy]ethyl}carbamate] in this work.
An IC50 of 140 nM was found for `Cc1nsc(Nc2cnc(C(F)(F)F)cn2)c1C(=O)Nc1ccc(F)c(OC2CCN(C(=O)OC(C)(C)C)CC2)c1` [Example 229, tert-butyl 4-(2-fluoro-5-{[(3-methyl-5-{[5-(trifluoromethyl)pyrazin-2-yl]amino}-1,2-thiazol-4-yl)carbonyl]amino}phenoxy)piperidine-1-carboxylate] in this work.
An IC50 of 940 nM was found for `Cc1nsc(Nc2cncc(C(F)(F)F)n2)c1C(=O)Nc1ccc(OC2CCN(CCF)CC2)nc1` [Example 14, N-(6-{[1-(2-Fluoroethyl)piperidin-4-yl]oxy}pyridin-3-yl)-3-methyl-5-{[6-(trifluoro-methyl)pyrazin-2-yl]amino}-1,2-thiazole-4-carboxamide] in this work.

Source: patent publication US20170334899A1, “AMINO-SUBSTITUTED ISOTHIAZOLES” (Bayer Pharma Aktiengesellschaft, priority 2014, published 2017)
